Test results published in patent publication US10202404B2, “Polycyclic pyridone derivative having integrase inhibitory activity” (Shionogi & Co., Ltd., priority 2014, dated 2019).

What follows are molecules tested on HIV (assay: Anti-HIV activity (MT-4 cells, MTT)). Conditions: 50% HIV inhibition concentration; MT-4 cells infected with HIV, incubated 4 days, MTT readout.
Format: cell-based
Experimental: Previously, a series of two-fold dilution on test samples were carried out in a 96-well plate (50 μL/well). Two plates were made for measuring anti-HIV activity and measuring cytotoxicity. For each agent, measurement in duplicate was carried out. An MT-4 cell suspension of 2.5×10^5/mL was dispensed at 100 μL/well onto the 96-well plate containing the test samples. An HIV virus solution was dispensed at 50 μL/well onto the 96-well plate containing the test samples and the cell. To the plate for measuring cytotoxicity, a culture solution was dispensed at 50 μL/well. It was mixed by a plate mixer, and then incubated in a CO2 incubator for 4 days. […] Thirty microliters of a MTT (3-(4,5-dimethylthiazol-2-yl)-2,5-diphenyltetrazolium bromide) solution was dispensed to each well.
A reaction was allowed to occur in a CO2 incubator for an hour. From each well, 150 μL of the supernatant was removed such that cells are not sucked. One-hundred and fifty microliters of a cell lysis solution was added thereto, and then it was mixed well by a plate mixer until the whole cells are lysed. The mixed 96-well plates were measured by a microplate reader at two wavelengths, 560 nm/690 nm. Based on the following calculation formula, 50% HIV inhibition concentration (EC50) was calculated. EC50=10Z Z=(50%−Low %)/(High %−Low %)×{log(High conc.)−log(Low conc.)}+log(Low conc.) Based on the following calculation formula, 50% cytotoxic concentration (CC50) was calculated. CC50=10Z Z=(50%−Low %)/(High %−Low %)×{log(High conc.)−log(Low conc.)}+log(Low conc.) Based on the following calculation formula, selectivity index (ST) was calculated. SI=CC50/EC50 (Result)

Structure (SMILES)	EC50 [nM]
C[C@@H]1CCO[C@H]2Cn3cc(-c4cnc(Cc5ccc(F)cc5F)s4)c(=O)c(O)c3C(=O)N12 [Compound A-40]	11
C[C@@H]1CCO[C@H]2Cn3cc(-c4cn(Cc5ccc(F)cc5F)cn4)c(=O)c(O)c3C(=O)N12 [Compound A-49]	10
C[C@@H]1CCO[C@H]2Cn3cc(-c4nnc(Oc5ccc(F)cc5F)s4)c(=O)c(O)c3C(=O)N12 [Compound A-51]	6.8
C[C@@H]1CCO[C@H]2Cn3cc(-c4nnc(Cc5ccc(F)cc5F)[nH]4)c(=O)c(O)c3C(=O)N12 [Compound A-52]	18

Same assay, conditions: Human immunodeficiency virus 1, MT4, 96 h; 50% HIV inhibition concentration; MT-4 cells infected with HIV, incubated 4 days, MTT readout

Structure (SMILES)	EC50 [nM]
C[C@@H]1CCO[C@H]2Cn3cc(-c4ncc(Cc5cccc(Cl)c5F)s4)c(=O)c(O)c3C(=O)N12 [Compound A-1]	7.8
C[C@H]1CO[C@@H]2Cn3cc(-c4ncc(Cc5cccc(Cl)c5F)s4)c(=O)c(O)c3C(=O)N12 [Compound A-2]	2.5
C[C@@H]1CO[C@H]2Cn3cc(-c4ncc(Cc5cccc(Cl)c5F)s4)c(=O)c(O)c3C(=O)N12 [Compound A-3]	3.7
C[C@@H]1CCN2C(=O)c3c(O)c(=O)c(-c4ncc(Cc5cccc(Cl)c5F)s4)cn3C[C@@H]2O1 [Compound A-5]	8
C[C@H]1CO[C@@H]2Cn3cc(-c4ncc(Cc5ccc(F)cc5F)s4)c(=O)c(O)c3C(=O)N12 [Compound A-6]	1.9
C[C@@H]1CO[C@H]2Cn3cc(-c4ncc(Cc5ccc(F)cc5F)s4)c(=O)c(O)c3C(=O)N12 [Compound A-7]	6.5
C[C@@H]1CO[C@H]2Cn3cc(-c4ncc(Cc5ccc(F)cc5F)s4)c(=O)c(O)c3C(=O)N2C1 [Compound A-8]	3.5
C[C@@H]1CO[C@H]2Cn3cc(-c4ncc(Cc5cccc(Cl)c5F)s4)c(=O)c(O)c3C(=O)N2C1 [Compound A-9]	7.1
C[C@H]1CCO[C@@H]2Cn3cc(-c4ncc(Cc5ccc(F)cc5F)s4)c(=O)c(O)c3C(=O)N12 [Compound A-10]	4.4
C[C@H]1CCO[C@@H]2Cn3cc(-c4ncc(Cc5cccc(Cl)c5F)s4)c(=O)c(O)c3C(=O)N12 [Compound A-11]	8.8
C[C@@H]1CCO[C@H]2Cn3cc(-c4ncc(Cc5c(F)cc(F)cc5F)s4)c(=O)c(O)c3C(=O)N12 [Compound A-12]	4.9
C[C@@H]1CCO[C@@H]2Cn3cc(-c4ncc(Cc5ccc(F)cc5F)s4)c(=O)c(O)c3C(=O)N12 [Compound A-13]	6
C[C@H]1CO[C@@H]2Cn3cc(-c4ncc(Cc5c(F)cc(F)cc5F)s4)c(=O)c(O)c3C(=O)N12 [Compound A-14]	1.2
C[C@H]1CO[C@@H]2Cn3cc(-c4nnc(Cc5ccc(F)cc5F)s4)c(=O)c(O)c3C(=O)N12 [Compound A-15]	1.1
C[C@@H]1CCN2C(=O)c3c(O)c(=O)c(-c4nnc(Cc5ccc(F)cc5F)s4)cn3C[C@@H]2O1 [Compound A-16]	2.1
C[C@@H]1CCO[C@H]2Cn3cc(-c4nnc(Cc5cccc(Cl)c5F)s4)c(=O)c(O)c3C(=O)N12 [Compound A-17]	2.3
C[C@H]1CO[C@@H]2Cn3cc(-c4nnc(Cc5cccc(Cl)c5F)s4)c(=O)c(O)c3C(=O)N12 [Compound A-18]	2.3
C[C@@H]1CO[C@H]2Cn3cc(-c4nnc(Cc5ccc(F)cc5F)s4)c(=O)c(O)c3C(=O)N12 [Compound A-19]	3.1
C[C@@H]1CO[C@H]2Cn3cc(-c4nnc(Cc5cccc(Cl)c5F)s4)c(=O)c(O)c3C(=O)N12 [Compound A-20]	3
C[C@@H]1CO[C@H]2Cn3cc(-c4nnc(Cc5ccc(F)cc5F)s4)c(=O)c(O)c3C(=O)N2C1 [Compound A-21]	1
C[C@@H]1CO[C@H]2Cn3cc(-c4nnc(Cc5cccc(Cl)c5F)s4)c(=O)c(O)c3C(=O)N2C1 [Compound A-22]	1.7
C[C@@H]1CCO[C@H]2Cn3cc(-c4nnc(Cc5c(F)cc(F)cc5F)s4)c(=O)c(O)c3C(=O)N12 [Compound A-23]	2.6
C[C@@H]1CCO[C@H]2Cn3cc(-c4nnc(Cc5cc(F)c(F)cc5F)s4)c(=O)c(O)c3C(=O)N12 [Compound A-24]	4.2
C[C@@H]1CCO[C@H]2Cn3cc(-c4nnc(Cc5c(F)ccc(Cl)c5F)s4)c(=O)c(O)c3C(=O)N12 [Compound A-25]	3.4
C[C@@H]1CCO[C@H]2Cn3cc(-c4nnc(Cc5ccc(F)c(Cl)c5F)s4)c(=O)c(O)c3C(=O)N12 [Compound A-26]	3.8
C[C@@H]1CCO[C@H]2Cn3cc(-c4nnc(Cc5c(Cl)ccc(Cl)c5F)s4)c(=O)c(O)c3C(=O)N12 [Compound A-27]	3.5
C[C@H]1CCO[C@@H]2Cn3cc(-c4nnc(Cc5cccc(Cl)c5F)s4)c(=O)c(O)c3C(=O)N12 [Compound A-28]	3.3

Structure (SMILES)	EC50 [nM]
C[C@@H]1CCO[C@H]2Cn3cc(-c4nnc(Cc5ccc(F)c(F)c5F)s4)c(=O)c(O)c3C(=O)N12 [Compound A-31]	2.3
COc1c(F)ccc(Cc2nnc(-c3cn4c(c(O)c3=O)C(=O)N3[C@H](C)CCO[C@H]3C4)s2)c1F [Compound A-32]	12
C[C@@H]1CCO[C@H]2Cn3cc(-c4nnc(Cc5ccc(F)c(Cl)c5)s4)c(=O)c(O)c3C(=O)N12 [Compound A-33]	2.5
C[C@@H]1CCO[C@H]2Cn3cc(-c4nnc(Cc5cc(C(F)(F)F)cc(Cl)c5F)s4)c(=O)c(O)c3C(=O)N12 [Compound A-34]	13
C[C@H]1CO[C@@H]2Cn3cc(-c4cnc(Cc5ccc(F)cc5F)s4)c(=O)c(O)c3C(=O)N12 [Compound A-42]	10
C[C@@H]1CCO[C@H]2Cn3cc(-c4nnc(C(F)(F)c5cccc(Cl)c5F)s4)c(=O)c(O)c3C(=O)N12 [Compound A-43]	3.6
C[C@H]1CO[C@@H]2Cn3cc(-c4cn(Cc5ccc(F)cc5F)cn4)c(=O)c(O)c3C(=O)N12 [Compound A-44]	5.1
Cc1nc(-c2cn3c(c(O)c2=O)C(=O)N2[C@H](C)CCO[C@H]2C3)sc1Cc1ccc(F)cc1F [Compound A-45]	4.1
Cc1nc(-c2cn3c(c(O)c2=O)C(=O)N2[C@@H](C)CO[C@@H]2C3)sc1Cc1cccc(Cl)c1F [Compound A-46]	3.9
Cc1nc(-c2cn3c(c(O)c2=O)C(=O)N2[C@@H](C)CO[C@@H]2C3)sc1Cc1ccc(F)cc1F [Compound A-47]	3.4
C[C@@H]1CCO[C@H]2Cn3cc(-c4nc(C(F)(F)F)c(Cc5ccc(F)cc5F)s4)c(=O)c(O)c3C(=O)N12 [Compound A-48]	14
C[C@@H]1CCO[C@H]2Cn3cc(-c4cn(Cc5cccc(Cl)c5F)cn4)c(=O)c(O)c3C(=O)N12 [Compound A-50]	12
O=C1c2c(O)c(=O)c(-c3nnc(Cc4cccc(Cl)c4F)s3)cn2C[C@@H]2N1C[C@H]1CCCN12 [Compound A-54]	1.6
O=C1c2c(O)c(=O)c(-c3nnc(Cc4ccc(F)cc4F)s3)cn2C[C@@H]2N1C[C@H]1CCCN12 [Compound A-55]	1.7
C[C@H]1CCN(C2CC2)[C@@H]2Cn3cc(-c4nnc(Cc5cccc(Cl)c5F)s4)c(=O)c(O)c3C(=O)N12 [Compound A-56]	4
C[C@H]1N2C(=O)c3c(O)c(=O)c(-c4nnc(Cc5ccc(F)cc5F)s4)cn3C[C@@H]2OCC12CC2 [Compound A-57]	1.7
O=C1c2c(O)c(=O)c(-c3nnc(Cc4ccc(F)cc4F)s3)cn2CC2OCC3(COC3)CN12 (stereo not drawn) [Compound A-58]	10
Cc1nc(-c2cn3c(c(O)c2=O)C(=O)N2[C@H](C)CCO[C@H]2C3)cn1Cc1ccc(F)cc1F [Compound A-59]	9.5
C[C@H]1CN(C2CC2)[C@@H]2Cn3cc(-c4nnc(Cc5ccc(F)cc5F)s4)c(=O)c(O)c3C(=O)N12 [Compound A-60]	2
COCCN1CC[C@H](C)N2C(=O)c3c(O)c(=O)c(-c4nnc(Cc5ccc(F)cc5F)s4)cn3C[C@@H]12 [Compound A-61]	4.1
C[C@H]1[C@H]2CCCN2[C@@H]2Cn3cc(-c4nnc(Cc5ccc(F)cc5F)s4)c(=O)c(O)c3C(=O)N12 [Compound A-62]	1.6
O=C1c2c(O)c(=O)c(-c3nnc(Cc4ccc(F)cc4F)s3)cn2C[C@@H]2O[C@H]3CCC[C@H]3N12 [Compound A-63]	2
C[C@@H]1CCO[C@H]2Cn3cc(-c4cn(Cc5ccc(F)cc5F)cn4)c(=O)c(O)c3C(=O)N12 [Compound A-64]	1.6
O=C1c2c(O)c(=O)c(-c3nnc(Cc4ccc(F)cc4F)s3)cn2C[C@H]2O[C@@H]3CC[C@@H](C3)N12 [Compound A-65]	4.2
O=C1c2c(O)c(=O)c(-c3nnc(Cc4ccc(F)cc4F)s3)cn2C[C@@H]2O[C@H]3CC[C@H](C3)N12 [Compound A-66]	7.2
COC[C@@H]1CCO[C@H]2Cn3cc(-c4nnc(Cc5ccc(F)cc5F)s4)c(=O)c(O)c3C(=O)N12 [Compound A-67]	4.2
